From patent US12077503B2, “Substituted cyclic amides and their use as herbicides” (FMC CORPORATION, priority 2015, dated 2024)

Columns and labels:
Assay type in all cases: in vivo
[1] = system: sedge, umbrella (small-flower umbrella sedge, Cyperus difformis); assay: Test B flooded paddy test; settings: Cyperus difformis, Flood, 250 g ai/ha; scale of 0 to 100 where 0 is no effect and 100 is complete control; read-out: Sedge, Umbrella plant response rating
Outline: (§1)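 Flooding to 3 cm over soil accompanied treatment, which consisted of adding compound to the standing water around 2-leaf plants; depth was then maintained. Visual assessment versus controls followed at 13 to 15 d (scale 0–100, 0 meaning no effect).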

[2] = system: ducksalad (Heteranthera limosa); assay: Test B flooded paddy test; settings: Heteranthera limosa, Flood, 250 g ai/ha; scale of 0 to 100 where 0 is no effect and 100 is complete control; read-out: Ducksalad plant response rating
Outline: as §1

rice (Oryra sativa) = assay: Test B flooded paddy test; settings: Oryza sativa, Flood, 250 g ai/ha; scale of 0 to 100 where 0 is no effect and 100 is complete control; read-out: Rice plant response rating
Outline: as §1

[3] = system: barnyardgrass (Echinochloa crus-galli); assay: Test B flooded paddy test; settings: Echinochloa crus-galli, Flood, 250 g ai/ha; scale of 0 to 100 where 0 is no effect and 100 is complete control; read-out: Barnyardgrass plant response rating
Outline: as §1

[4] = system: ryegrass, Italian (Italian ryegrass, Lolium multiflorum); assay: Test A preemergence; settings: Lolium multiflorum, pre-emergence, 240 h; for pest or weed control at 125 g/ha: 125 g ai/ha, Preemergence, visual injury rating after approximately 10 d, read-out: Ryegrass, Italian plant response rating (0 to 100 scale, 0 is no effect, 100 is complete control); for pest or weed control at 500 g/ha: 500 g ai/ha, preemergence, visual injury rating about 10 d after treatment, 0 to 100 scale (0 no effect, 100 complete control), read-out: Ryegrass, Italian plant response rating
Outline: (§2)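 Seeded soil received test chemicals as a preemergence directed spray, and seedlings at one to two leaves, 2–10 cm tall, received them postemergence, in a non-phytotoxic, surfactant-containing solvent mixture. Pots were held in a greenhouse for approximately 10 d, then rated for injury from 0, no effect, to 100, complete control.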

[5] = system: pigweed (Amaranthus retroflexus); assay: Test A preemergence; settings: Amaranthus retroflexus, pre-emergence, 240 h; for pest or weed control at 125 g/ha: 125 g ai/ha, Preemergence, visual injury rating after approximately 10 d, read-out: Pigweed plant response rating (0 to 100 scale, 0 is no effect, 100 is complete control); for pest or weed control at 500 g/ha: 500 g ai/ha, preemergence, visual injury rating about 10 d after treatment, 0 to 100 scale (0 no effect, 100 complete control), read-out: Pigweed plant response rating
[6] = system: giant foxtail (Setaria faberii); assay: Test A preemergence; settings: Setaria faberi, pre-emergence, 240 h; for pest or weed control at 125 g/ha: 125 g ai/ha, Preemergence, visual injury rating after approximately 10 d, read-out: Foxtail, Giant plant response rating (0 to 100 scale, 0 is no effect, 100 is complete control); for pest or weed control at 500 g/ha: 500 g ai/ha, preemergence, visual injury rating about 10 d after treatment, 0 to 100 scale (0 no effect, 100 complete control), read-out: Foxtail, Giant plant response rating
Outline: as §2

Kochia (Kochia scoparia) = assay: Test A preemergence; settings: Bassia scoparia, pre-emergence, 240 h; for pest or weed control at 125 g/ha: 125 g ai/ha, Preemergence, visual injury rating after approximately 10 d, read-out: Kochia plant response rating (0 to 100 scale, 0 is no effect, 100 is complete control); for pest or weed control at 500 g/ha: 500 g ai/ha, preemergence, visual injury rating about 10 d after treatment, 0 to 100 scale (0 no effect, 100 complete control), read-out: Kochia plant response rating
Outline: as §2

[7] = system: ragweed (common ragweed, Ambrosia elatior); assay: Test A preemergence; settings: Ambrosia artemisiifolia, pre-emergence, 240 h; for pest or weed control at 125 g/ha: 125 g ai/ha, Preemergence, visual injury rating after approximately 10 d, read-out: Ragweed plant response rating (0 to 100 scale, 0 is no effect, 100 is complete control); for pest or weed control at 500 g/ha: 500 g ai/ha, preemergence, visual injury rating about 10 d after treatment, 0 to 100 scale (0 no effect, 100 complete control), read-out: Ragweed plant response rating
Outline: as §2

[8] = system: barnyardgrass (Echinochloa crus-galli); assay: Test A preemergence; settings: Echinochloa crus-galli, pre-emergence, 240 h; for pest or weed control at 125 g/ha: 125 g ai/ha, Preemergence, visual injury rating after approximately 10 d, read-out: Barnyardgrass plant response rating (0 to 100 scale, 0 is no effect, 100 is complete control); for pest or weed control at 500 g/ha: 500 g ai/ha, preemergence, visual injury rating about 10 d after treatment, 0 to 100 scale (0 no effect, 100 complete control), read-out: Barnyardgrass plant response rating
Outline: as §2

[9] = system: ryegrass, Italian (Italian ryegrass, Lolium multiflorum); assay: Test A postemergence; settings: Lolium multiflorum, post-emergence, 240 h, 125 g ai/ha, Postemergence; visual injury after approximately 10 d; 0 to 100 scale where 0 is no effect and 100 is complete control; read-out: Plant response rating, Ryegrass, Italian
Outline: as §2

[10] = system: wheat (Triticum aestivum); assay: Test A postemergence; settings: Triticum aestivum, post-emergence, 240 h, 125 g ai/ha, Postemergence; visual injury after approximately 10 d; 0 to 100 scale where 0 is no effect and 100 is complete control; read-out: Plant response rating, Wheat
Outline: as §2

[11] = system: giant foxtail (Setaria faberii); assay: Test A postemergence; settings: Setaria faberi, post-emergence, 240 h, 125 g ai/ha, Postemergence; visual injury after approximately 10 d; 0 to 100 scale where 0 is no effect and 100 is complete control; read-out: Plant response rating, Foxtail, Giant
Outline: as §2

[12] = system: ragweed (common ragweed, Ambrosia elatior); assay: Test A postemergence; settings: Ambrosia artemisiifolia, post-emergence, 240 h, 125 g ai/ha, Postemergence; visual injury after approximately 10 d; 0 to 100 scale where 0 is no effect and 100 is complete control; read-out: Plant response rating, Ragweed
Outline: as §2

Compound | pest or weed control at 250 g/ha [1] [%] | pest or weed control at 250 g/ha [2] [%] | pest or weed control at 250 g/ha (rice (Oryra sativa)) [%] | pest or weed control at 250 g/ha [3] [%] | pest or weed control at 125 g/ha [4] [%] | pest or weed control at 500 g/ha [4] [%] | pest or weed control at 125 g/ha [5] [%] | pest or weed control at 500 g/ha [5] [%] | pest or weed control at 125 g/ha [6] [%] | pest or weed control at 500 g/ha [6] [%] | pest or weed control at 125 g/ha (Kochia (Kochia scoparia)) [%] | pest or weed control at 500 g/ha (Kochia (Kochia scoparia)) [%] | pest or weed control at 125 g/ha [7] [%] | pest or weed control at 500 g/ha [7] [%] | pest or weed control at 125 g/ha [8] [%] | pest or weed control at 500 g/ha [8] [%] | pest or weed control at 125 g/ha [9] [%] | plant injury at 125 g/ha [10] [%] | pest or weed control at 125 g/ha [11] [%] | pest or weed control at 125 g/ha [12] [%]
CN1C[C@H](c2csc(C(F)(F)F)c2)[C@@H](C(=O)Nc2cccc(F)c2F)C1=O [Compound 959] | 0 | 100 | 20 | 60 | 20 | 60 | 0 | 30 | 90 | 100 | 70 | 90 | 70 | 70 | 90 | 100 | 30 | 20 | 80 | 0
CN1C[C@H](c2cc(C(F)(F)F)cs2)[C@@H](C(=O)Nc2ccccc2F)C1=O [Compound 962] | 0 | 90 | 10 | 60 | 0 | 30 | 0 | 50 | 90 | 90 | 50 | 70 | 20 | 30 | 90 | 90 | 20 | 30 | 90 | 0
CC(C)COc1cccc([C@H]2CNC(=O)[C@@H]2C(=O)Nc2cccc(F)c2F)c1 [Compound 965] | 0 | 85 | 0 | 20 | 70 | 90 | 0 | 0 | 90 | 90 | 0 | 60 | 0 | 0 | 90 | 90 | 0 | 20 | 70 | 0
CC(C)COc1cccc([C@H]2CNC(=O)[C@@H]2C(=O)Nc2ccc(F)cc2F)c1 [Compound 966] | 0 | 60 | 0 | 0 | 20 | 60 | 0 | 0 | 80 | 90 | 30 | 30 | 0 | 0 | 80 | 90 | 0 | 0 | 40 | 0
CN1C[C@H](c2cc(F)cc(F)c2)[C@@H](C(=O)Nc2ccc(C(F)(F)F)cc2)C1=O [Compound 968] | 0 | 30 | 0 | 0 | 0 | 0 | 0 | 0 | 30 | 60 | 0 | 0 | 0 | 0 | 20 | 60 | 0 | 0 | 0 | 0
